Laboratory results: patent US9060970B2, “Bridge-helix cap: target and method for inhibition of bacterial RNA polymerase” (priority 2011, dated 2015)
Entries after “also recorded” stand apart in the source; their conditions may differ. Starred links: 1 amine or outer side, 2 acyl side, 3 side chain; linkers in the order of their positions; H or OH if unused. Positions of bridges follow the written chain, without caps; N, C: chain ends. Non-standard residues stand in square brackets, D forms with d. Residues, ends and D or L forms follow the SMILES beside them. *: point of attachment. X2 = C[C@H](Oc1ccc([C@H](N[*:1])C(=O)[*:2])cc1)[C@@]1(/C=C/C(=O)[*:3])CO1; X1 = CC(C)[C@H](O)[C@H](C)C(=O)*; aIle = CC[C@@H](C)[C@H](N)C(=O)O; dNMeF = CN[C@H](Cc1ccccc1)C(=O)O; aThr = C[C@H](O)[C@H](N)C(=O)O

Columns and labels:
[1] = system: Streptococcus pneumoniae; conditions: references 1, 2; cited from earlier work
[2] = molecular target: bacterial RNA polymerase (RNAP) (Escherichia coli, UniProt P0A8T7+P0A8V2); conditions: in vitro; reference 4; read-out: IC50, inhibition of bacterial RNA polymerase in vitro; cited from earlier work
bacterial RNA polymerase (RNAP), sequence (P0A8V2 whole entry): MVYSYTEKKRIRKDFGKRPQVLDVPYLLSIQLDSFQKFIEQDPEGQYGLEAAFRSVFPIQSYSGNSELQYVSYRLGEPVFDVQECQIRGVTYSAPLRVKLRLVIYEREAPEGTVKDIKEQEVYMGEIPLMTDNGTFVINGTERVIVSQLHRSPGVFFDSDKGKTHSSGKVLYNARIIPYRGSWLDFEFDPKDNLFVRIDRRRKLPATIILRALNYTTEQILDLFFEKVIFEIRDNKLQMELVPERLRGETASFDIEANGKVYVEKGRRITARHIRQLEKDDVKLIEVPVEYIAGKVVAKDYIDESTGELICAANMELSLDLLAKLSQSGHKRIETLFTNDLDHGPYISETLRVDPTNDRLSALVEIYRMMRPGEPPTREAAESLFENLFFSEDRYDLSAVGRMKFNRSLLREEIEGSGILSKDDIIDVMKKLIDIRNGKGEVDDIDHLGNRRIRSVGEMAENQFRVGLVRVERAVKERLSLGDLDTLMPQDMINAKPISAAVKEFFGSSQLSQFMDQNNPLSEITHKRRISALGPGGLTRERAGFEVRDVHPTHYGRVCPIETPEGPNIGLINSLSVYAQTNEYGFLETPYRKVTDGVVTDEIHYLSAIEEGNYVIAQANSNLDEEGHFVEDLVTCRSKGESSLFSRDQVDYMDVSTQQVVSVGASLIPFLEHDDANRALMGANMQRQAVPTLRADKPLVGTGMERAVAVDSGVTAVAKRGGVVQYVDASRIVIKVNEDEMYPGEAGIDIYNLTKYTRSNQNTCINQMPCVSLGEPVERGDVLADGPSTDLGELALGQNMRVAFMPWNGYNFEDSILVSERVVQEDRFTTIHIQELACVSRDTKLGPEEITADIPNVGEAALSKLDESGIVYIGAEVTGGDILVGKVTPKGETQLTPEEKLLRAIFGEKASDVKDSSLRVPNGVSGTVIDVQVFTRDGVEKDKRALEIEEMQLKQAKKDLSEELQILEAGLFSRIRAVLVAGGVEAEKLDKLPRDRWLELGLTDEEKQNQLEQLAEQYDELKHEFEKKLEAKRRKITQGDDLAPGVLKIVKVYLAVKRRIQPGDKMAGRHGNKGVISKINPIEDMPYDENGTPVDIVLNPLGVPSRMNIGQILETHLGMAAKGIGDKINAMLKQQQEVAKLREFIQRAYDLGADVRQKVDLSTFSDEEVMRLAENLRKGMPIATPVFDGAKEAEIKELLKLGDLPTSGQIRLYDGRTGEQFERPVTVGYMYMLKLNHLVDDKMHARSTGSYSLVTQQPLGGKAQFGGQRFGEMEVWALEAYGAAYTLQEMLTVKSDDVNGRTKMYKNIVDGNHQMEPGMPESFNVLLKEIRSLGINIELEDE
bacterial RNA polymerase (RNAP), sequence (P0A8T7 whole entry): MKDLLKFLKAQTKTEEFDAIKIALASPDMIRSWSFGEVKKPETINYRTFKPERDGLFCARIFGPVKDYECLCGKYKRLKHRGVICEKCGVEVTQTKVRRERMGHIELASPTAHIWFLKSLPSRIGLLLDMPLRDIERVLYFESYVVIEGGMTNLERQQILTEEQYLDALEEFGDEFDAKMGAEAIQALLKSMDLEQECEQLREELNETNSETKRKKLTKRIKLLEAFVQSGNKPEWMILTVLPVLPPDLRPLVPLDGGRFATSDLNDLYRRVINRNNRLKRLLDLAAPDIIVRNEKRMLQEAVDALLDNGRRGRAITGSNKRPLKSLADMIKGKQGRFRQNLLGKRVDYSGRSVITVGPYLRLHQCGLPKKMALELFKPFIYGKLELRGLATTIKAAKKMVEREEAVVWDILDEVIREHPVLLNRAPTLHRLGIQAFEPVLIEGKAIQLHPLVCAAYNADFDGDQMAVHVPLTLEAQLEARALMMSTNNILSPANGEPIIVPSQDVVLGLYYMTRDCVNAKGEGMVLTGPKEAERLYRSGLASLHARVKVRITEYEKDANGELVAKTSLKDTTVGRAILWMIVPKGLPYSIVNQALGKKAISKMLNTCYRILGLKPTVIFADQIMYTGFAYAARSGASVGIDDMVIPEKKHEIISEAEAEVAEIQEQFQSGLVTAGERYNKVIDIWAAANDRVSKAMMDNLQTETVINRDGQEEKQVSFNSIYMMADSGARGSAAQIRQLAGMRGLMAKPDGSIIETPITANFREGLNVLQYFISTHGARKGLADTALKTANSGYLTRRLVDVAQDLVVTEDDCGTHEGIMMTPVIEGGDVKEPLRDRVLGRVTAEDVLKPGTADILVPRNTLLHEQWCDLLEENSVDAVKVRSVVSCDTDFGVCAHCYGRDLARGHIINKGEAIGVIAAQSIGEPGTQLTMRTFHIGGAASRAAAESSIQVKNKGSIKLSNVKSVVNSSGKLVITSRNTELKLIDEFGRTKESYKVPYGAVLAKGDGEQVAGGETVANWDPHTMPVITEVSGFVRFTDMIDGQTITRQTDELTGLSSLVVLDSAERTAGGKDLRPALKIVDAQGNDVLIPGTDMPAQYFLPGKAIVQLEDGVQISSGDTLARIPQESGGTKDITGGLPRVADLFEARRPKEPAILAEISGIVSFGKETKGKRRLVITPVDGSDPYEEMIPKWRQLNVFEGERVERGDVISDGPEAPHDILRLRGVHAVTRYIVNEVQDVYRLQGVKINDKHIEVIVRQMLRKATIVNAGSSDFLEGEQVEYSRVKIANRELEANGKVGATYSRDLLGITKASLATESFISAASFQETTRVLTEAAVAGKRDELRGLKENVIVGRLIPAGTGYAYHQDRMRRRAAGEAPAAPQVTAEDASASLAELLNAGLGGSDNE
bacterial RNA polymerase (RNAP), sequence (P0A7Z4 whole entry, further chain): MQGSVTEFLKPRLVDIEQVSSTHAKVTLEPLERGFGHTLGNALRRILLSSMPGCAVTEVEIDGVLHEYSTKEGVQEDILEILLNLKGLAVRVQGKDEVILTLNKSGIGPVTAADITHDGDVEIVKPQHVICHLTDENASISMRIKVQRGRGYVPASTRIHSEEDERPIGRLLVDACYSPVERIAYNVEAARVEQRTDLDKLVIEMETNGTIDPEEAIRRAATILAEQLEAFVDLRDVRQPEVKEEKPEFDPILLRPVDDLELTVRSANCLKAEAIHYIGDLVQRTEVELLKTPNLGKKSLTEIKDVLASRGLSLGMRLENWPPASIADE

[3] = system: Sal-resistant mutants of E. coli D21f2tolC (rpoC / rpoB substitutions); assay: Broth microdilution resistance / cross-resistance levels of spontaneous Sal-resistant mutants; format: cell-based, Escherichia coli
Protocol: Isolation of Sal-Resistant Mutants: Spontaneous Sal-Resistant Mutants. E. coli D21f2tolC (6) was cultured to saturation in 5 ml LB broth (7) at 37° C., cultures were centrifuged, and cell pellets (˜3×10^9 cells) were re-suspended in 50 μl LB broth and plated on LB agar (7) containing 1.2 μg/ml Sal (a concentration four times the minimal concentration required to prevent growth of wild-type cells under these conditions), and incubated 24-48 h at 37° C. Sal-resistant mutants were identified by the ability to form colonies on this medium and were confirmed by re-streaking on the same medium.
(§1) Quantitation of Resistance to Sal. Resistance to Sal was quantified by performing broth microdilution assays. Single colonies were inoculated into 3 ml LB broth, and incubated 3-6 h at 37° C. with shaking. Diluted aliquots (2×10^4 cells in 98 μl LB broth; concentrations determined using OD600=1 for 10^9 cells) were dispensed into wells of a 96-well plate, were supplemented with 2 μl of a 2-fold dilution series of Sal in methanol (final concentrations of […], 0.390, 0.195, 0.0975, 0.0488, 0.0244, 0.0122, and 0.00609 μg/ml) or 2 μl of a solvent blank, and were incubated 16 h at 37° C. with shaking. The minimum inhibitory concentration (MIC) was defined as the lowest tested concentration of Sal that inhibited bacterial growth by 95%.
Quantitation of Cross-Resistance to Rifampin and CBR703. Cross-resistance levels were determined analogously to resistance levels, using 0.12-0.78 μg/ml of rifampin (Sigma, Inc.) and 0.39-25 μg/ml of CBR703 (Maybridge, Inc.).

[4] = system: S. pyogenes; conditions: references 1, 2; cited from earlier work
[5] = system: D21f2tolC pRL663 and D21f2tolC pRL706 derivatives; assay: Broth microdilution resistance levels of induced Sal-resistant mutants (plasmid-borne rpoC / rpoB); format: cell-based, Escherichia coli; conditions: for resistance level (MIC/MICwild-type): induced mutant
Protocol: Isolation of Sal-Resistant Mutants: Induced Sal-Resistant Mutants. E. coli Random mutagenesis of rpoC in plasmid pRL663 and rpoB in plasmid pRL706 was performed as in 24, mutagenenized plasmids were passaged in E. coli XL1-Blue (Stratgene, Inc.) as in 24, mutagenized plasmids were introduced by transformation into E. coli D21f2tolC as in 24, and transformants (˜1×10^4 cells) were applied to LB-agar plates containing 1 μg/ml Sal, 200 μg/ml ampicillin, and 1 mM IPTG, and plates were incubated 16-24 h at 37° C. Sal-resistant mutants were identified by the ability to form colonies on this medium and were confirmed by re-streaking on the same medium.
as §1

[6] = system: RNA synthesis in E. coli D21f2tolC; assay: RNA synthesis in vivo ([14C]-uracil incorporation, macromolecular synthesis assay); format: cell-based, Escherichia coli; conditions: Sal at two times MIC; 5, 10, 15 min after addition; effect seen at earliest time point (5 min)
Protocol: Sal Inhibits RNA Synthesis in vivo. To determine whether Sal inhibits RNAP in vivo, effects of Sal on RNA synthesis in vivo were assayed, and, as a control, effects of Sal on DNA synthesis in vivo were assayed. Sal was added to cultures of E. coli D21f2tolC growing in media containing either a radioactively labeled RNA-synthesis precursor ([^14C]-uracil) or a radioactively labeled DNA synthesis precursor ([^14C]-thymidine); aliquots were removed and mixed with trichloroacetic acid (TCA) 0, 5, 10, and 15 min thereafter to lyse cells and precipitate nucleic acids; TCA-precipitated nucleic acids were collected by vacuum filtration; and radioactivity in TCA-precipitated nucleic acids was quantified (FIG. 2A). […] The effect was specific; addition of Sal to bacterial cultures had no effect on DNA synthesis (FIG. 2B, right panel). It is concluded that Sal inhibits RNA synthesis in vivo, and it is inferred that Sal inhibits RNAP in vivo.
Measurement of Nucleic Acid Synthesis in vivo. Macromolecular synthesis assays were performed essentially as in reference 5. […] Radioactivity was quantified using a Typhoon Variable Mode Imager and ImageQuant v5 (Molecular Dynamics, Inc.).

[7] = rpoC (RNAP β′ subunit) 780 Arg→Cys

CC[C@@H](C)[C@@H]1NC(=O)[C@H](NC(=O)[C@@H](C)[C@@H](O)C(C)C)[C@H](C)OC(=O)[C@H]2COC(=O)CNC(=O)/C=C/[C@@]3(CO3)[C@H](C)Oc3ccc(cc3)[C@H](NC1=O)C(=O)N(C)[C@H](Cc1ccccc1)C(=O)N[C@@H]([C@H](C)O)C(=O)N2 [Sal, salinamide A] (X1-[dT][aIle][X2][dNMeF][aThr][dS]; ester 1-C; linker 3-6 via G)
antibacterial activity [1]: exhibits antibacterial activity
IC50 [2]: 500 nM
resistance to Sal, all analyzed mutants ([3]; all analyzed Sal-resistant mutants (Tables 2, 3)): at least 2 fold
resistance level (MIC/MICwild-type) ([3]; rpoB (RNAP β subunit) 569 Ile→Ser): >16
resistance level (MIC/MICwild-type) ([3]; rpoB (RNAP β subunit) 675 Asp→Ala): >16
resistance level (MIC/MICwild-type) ([3]; rpoB (RNAP β subunit) 677 Asn→His): >16
resistance level (MIC/MICwild-type) ([3]; rpoB (RNAP β subunit) 677 Asn→Lys): >16
resistance level (MIC/MICwild-type) ([3]; rpoC (RNAP β′ subunit) 690 Asn→Asp): 16
resistance level (MIC/MICwild-type) ([3]; rpoC (RNAP β′ subunit) 697 Met→Val (one isolate also 1054 Thr→Ala)): >16
resistance level (MIC/MICwild-type) ([3]; rpoC (RNAP β′ subunit) 738 Arg→Cys): >16
resistance level (MIC/MICwild-type) ([3]; rpoC (RNAP β′ subunit) 738 Arg→His): >16
resistance level (MIC/MICwild-type) ([3]; rpoC (RNAP β′ subunit) 738 Arg→Pro): >16
resistance level (MIC/MICwild-type) ([3]; rpoC (RNAP β′ subunit) 738 Arg→Ser): >16
resistance level (MIC/MICwild-type) ([3]; rpoC (RNAP β′ subunit) 748 Ala→Glu): 16
resistance level (MIC/MICwild-type) ([3]; rpoC (RNAP β′ subunit) 758 Pro→Ser): 16
resistance level (MIC/MICwild-type) ([3]; rpoC (RNAP β′ subunit) 763 Phe→Cys): 16
resistance level (MIC/MICwild-type) ([3]; rpoC (RNAP β′ subunit) 775 Ser→Ala): 8
resistance level (MIC/MICwild-type) ([3]; rpoC (RNAP β′ subunit) 779 Ala→Thr): >16
resistance level (MIC/MICwild-type) ([3]; rpoC (RNAP β′ subunit) 779 Ala→Val): >16
resistance level (MIC/MICwild-type) [3, 7]: >16
resistance level (MIC/MICwild-type) ([3]; rpoC (RNAP β′ subunit) 783 Leu→Arg): >16
resistance to Sal, thirteen mutants ([3]; thirteen of the Sal-resistant mutants): > 16 fold
antibacterial activity [4]: exhibits antibacterial activity
MIC with wild-type rpoC and wild-type rpoB ([5]; D21f2tolC pRL663 and D21f2tolC pRL706 derivatives, wild-type plasmid genes): ^aAssayed as D21f2tolC pRL663 and D21f2tolC pRL706 derivatives; MIC with wild-type rpoC and wild-type rpoB was 0.098 μg/ml.
resistance level (MIC/MICwild-type) ([5]; rpoB (RNAP β subunit) 561 Ile→Ser): 2
resistance level (MIC/MICwild-type) ([5]; rpoB (RNAP β subunit) 665 Ala→Glu): 8
resistance level (MIC/MICwild-type) ([5]; rpoB (RNAP β subunit) 680 Leu→Met): 4
resistance level (MIC/MICwild-type) ([5]; rpoC (RNAP β′ subunit) 758 Pro→Thr): 4
resistance level (MIC/MICwild-type) [5, 7]: 8
resistance level (MIC/MICwild-type) ([5]; rpoC (RNAP β′ subunit) 782 Gly→Cys): 8
effect on RNA synthesis in vivo [6]: decreased immediately; also recorded: essentially stopped
